According to ChEMBL document CHEMBL1136315, “Identification of a novel class of inhibitor of human and Escherichia coli thymidine phosphorylase by in silico screening” (Bioorg Med Chem Lett, 2003):

Assays:
[1] = target: Thymidine phosphorylase (Escherichia coli) (UniProt P07650); assay: Inhibitory activity (105 uM) against Escherichia coli thymidine phosphorylase
[2] = target: T1, Thymidine phosphorylase (Homo sapiens) (UniProt P19971); assay: Inhibitory activity (134 uM) against Escherichia coli thymidine phosphorylase
T1 sequence (whole entry): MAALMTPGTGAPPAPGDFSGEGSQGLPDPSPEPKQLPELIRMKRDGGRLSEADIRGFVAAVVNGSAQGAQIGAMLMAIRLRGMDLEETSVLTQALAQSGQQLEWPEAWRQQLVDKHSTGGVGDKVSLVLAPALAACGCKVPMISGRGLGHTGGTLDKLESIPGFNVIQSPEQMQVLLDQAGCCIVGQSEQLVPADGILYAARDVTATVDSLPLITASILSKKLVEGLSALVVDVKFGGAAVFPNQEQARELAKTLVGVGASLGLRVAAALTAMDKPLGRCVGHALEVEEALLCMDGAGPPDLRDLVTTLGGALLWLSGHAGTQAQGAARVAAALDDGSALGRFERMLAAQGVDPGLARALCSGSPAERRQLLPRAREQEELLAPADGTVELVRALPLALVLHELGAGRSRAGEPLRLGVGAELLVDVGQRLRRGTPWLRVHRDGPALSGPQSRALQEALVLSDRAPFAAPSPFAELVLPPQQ

Thymidine phosphorylase (Escherichia coli), sequence (P07650 whole entry, looked up): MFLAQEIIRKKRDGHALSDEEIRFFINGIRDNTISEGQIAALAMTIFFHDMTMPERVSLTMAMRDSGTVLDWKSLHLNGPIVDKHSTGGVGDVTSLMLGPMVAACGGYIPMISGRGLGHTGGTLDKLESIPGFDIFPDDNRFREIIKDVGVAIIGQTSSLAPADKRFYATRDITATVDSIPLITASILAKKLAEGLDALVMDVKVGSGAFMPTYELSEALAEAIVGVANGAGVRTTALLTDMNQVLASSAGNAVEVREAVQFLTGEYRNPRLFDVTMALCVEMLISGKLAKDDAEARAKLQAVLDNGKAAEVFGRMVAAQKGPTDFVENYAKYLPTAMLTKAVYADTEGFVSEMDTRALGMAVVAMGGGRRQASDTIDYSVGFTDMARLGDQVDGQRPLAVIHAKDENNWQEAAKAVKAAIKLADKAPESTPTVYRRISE

Row | SMILES | inhibition [1] | inhibition [2]
1 | CCCCC1(/C=N/N=C(/N)S)NC(=O)NC1=O (configuration not stated) | 23% | –
2 | C=CCN/C(S)=N/C=C1C(=O)NC(=O)NC1=O | – | 60%
